Here are results for 2 compounds from US10238661B2, “Fused, spirocyclic heteroaromatic compounds for the treatment of bacterial infections” (priority 2014, dated 2019).

In experiment [1] the test system is Ureaplasma species. Conditions: Ureaplasma urealyticum ATCC 33175; CLSI M43-A acceptable QC range; cited from earlier work.
Experiment [2] relates to Mycoplasma pneumoniae. The conditions noted are these: Mycoplasma pneumoniae ATCC 29342; CLSI M43-A acceptable QC range; cited from earlier work.
The test system of experiment [3] is Ureaplasma species. Description: microbe, parasite or virus in culture. Format: cell-based, Ureaplasma urealyticum, Ureaplasma parvum.
The test system of a further experiment is Burkholderia mallei. The experiment can be described thus: microbe, parasite or virus in culture. Format: cell-based.
Experiment [4] deals with Mycoplasma pneumoniae. The experiment can be described thus: Broth microdilution MIC assay (CLSI M43-A), M. pneumoniae. Format: cell-based. The conditions noted are these: for MIC: read-out: MIC. A general note: Broth dilution looks for growth in wells or tubes with falling amounts of substance.
The subject of the next experiment is Yersinia pestis. Description: microbe, parasite or virus in culture. Format: cell-based. Conditions: Yersinia pestis.
For the next experiment, the system named is Brucella abortus. Description: microbe, parasite or virus in culture. In kind it is cell-based.
A further experiment concerns Bacillus anthracis. The experiment can be described thus: microbe, parasite or virus in culture. In kind it is cell-based. The conditions noted are these: Bacillus anthracis.
Another experiment relates to Mycoplasma hominis. The experiment can be described thus: microbe, parasite or virus in culture. Format: cell-based.
Another experiment concerns Brucella suis. Description: microbe, parasite or virus in culture. Format: cell-based.
A further experiment concerns Francisella tularensis. Description: microbe, parasite or virus in culture. Format: cell-based. Conditions: Francisella tularensis.
For the next experiment, the system named is Mycoplasma genitalium. The experiment can be described thus: microbe, parasite or virus in culture. In kind it is cell-based. Conditions: for MIC: Mycoplasmoides genitalium.

Converted amounts (≈) assume the structure as drawn. “And” between values parts separate entries of the source, which are not always exact repeats. Identical values can stand only once. Like-named read-outs stand apart in the source and are kept apart here. Bounds are passed on as bounds.

`CC[C@H]1OC(=O)[C@H](C)[C@@H](O[C@H]2C[C@@](C)(OC)[C@@H](O)[C@H](C)O2)[C@H](C)[C@@H](O[C@@H]2O[C@H](C)C[C@H](N(C)C)[C@H]2O)[C@](C)(O)C[C@@H](C)C(=O)[C@H](C)[C@@H](O)[C@]1(C)O` [Erythromycin]: the “MIC Limits for Quality Control Strain” value in the experiment on Ureaplasma species [1] was 1 to 8 µg/mL; in the experiment with Mycoplasma pneumoniae [2] it was 0.004 to 0.063 µg/mL.

`C[C@H]1COc2c(N3CCN(C)CC3)c(F)cc3c(=O)c(C(=O)O)cn1c23` [Levofloxacin]: the “MIC Range” value in the experiment on Ureaplasma species [3] is 0.25 to 32 µg/mL; against Mycoplasma pneumoniae [4] (M. pneumoniae isolates, n = 12) it was 0.5 to 1 µg/mL; against Mycoplasma hominis it was 0.063 to 0.25 µg/mL; with Mycoplasma genitalium, 0.5 to 2 µg/mL. Besides, the MIC50 against Ureaplasma species [3] (Ureaplasma) came to 1 µg/mL (≈ 2.77 µM); in the experiment with Mycoplasma pneumoniae [4] (M. pneumoniae isolates, n = 12) it was 0.5 µg/mL (≈ 1.38 µM); in the experiment with Mycoplasma hominis (Metamycoplasma hominis) it was 0.125 µg/mL (≈ 0.346 µM). The MIC90 worked out at 8 µg/mL (≈ 22.1 µM) with Ureaplasma species [3] (Ureaplasma); 1 µg/mL (≈ 2.77 µM) with Mycoplasma pneumoniae [4] (M. pneumoniae isolates, n = 12); 0.25 µg/mL (≈ 0.692 µM) against Mycoplasma hominis (Metamycoplasma hominis). The MIC in the experiment with Ureaplasma species [3] (Ureaplasma, ATCC33175) was 1 µg/mL (≈ 2.77 µM); in the experiment with Burkholderia mallei it was 0.5 µg/mL and 0.25 µg/mL; with Mycoplasma pneumoniae [4] (M. pneumoniae M-129 QC Strain ATCC 29342-B7), 1 µg/mL (≈ 2.77 µM); in the experiment with Mycoplasma pneumoniae [4] (M. pneumoniae isolate 51494) it was 1 µg/mL (≈ 2.77 µM); in the experiment on Mycoplasma pneumoniae [4] (M. pneumoniae isolate 53706), 0.5 µg/mL (≈ 1.38 µM); in the experiment with Mycoplasma pneumoniae [4] (M. pneumoniae isolate 53938), 1 µg/mL (≈ 2.77 µM). The MIC was determined as 0.5 µg/mL (≈ 1.38 µM) in the experiment with Mycoplasma pneumoniae [4] (M. pneumoniae isolate 54484, macrolide-resistant); 0.5 µg/mL (≈ 1.38 µM) in the experiment with Mycoplasma pneumoniae [4] (M. pneumoniae isolate 54506, macrolide-resistant); 1 µg/mL (≈ 2.77 µM) with Mycoplasma pneumoniae [4] (M. pneumoniae isolate 55246); 0.5 µg/mL (≈ 1.38 µM) in the experiment with Mycoplasma pneumoniae [4] (M. pneumoniae isolate 55612); 0.5 µg/mL (≈ 1.38 µM) in the experiment on Mycoplasma pneumoniae [4] (M. pneumoniae isolate 57807); 0.5 µg/mL (≈ 1.38 µM) with Mycoplasma pneumoniae [4] (M. pneumoniae isolate 58188). For the same compound, the MIC with Mycoplasma pneumoniae [4] (M. pneumoniae isolate 58772) was 1 µg/mL (≈ 2.77 µM); in the experiment with Mycoplasma pneumoniae [4] (M. pneumoniae isolate 59597) it was 0.5 µg/mL (≈ 1.38 µM); in the experiment with Mycoplasma pneumoniae [4] (M. pneumoniae isolate 59598), 1 µg/mL (≈ 2.77 µM); with Yersinia pestis, not above 0.25 µg/mL; with Brucella abortus, 0.25 µg/mL (≈ 0.692 µM); in the experiment on Brucella abortus (Brucella abortus) it was 0.5 µg/mL (≈ 1.38 µM). Also, the MIC is not above 0.25 µg/mL against Bacillus anthracis; 0.25 µg/mL (≈ 0.692 µM) against Brucella suis; 0.5 µg/mL (≈ 1.38 µM) against Brucella suis (Brucella suis); not above 0.125 µg/mL against Francisella tularensis; 0.5 µg/mL (≈ 1.38 µM) against Mycoplasma genitalium; 2 µg/mL (≈ 5.53 µM) in the experiment with Mycoplasma genitalium (ATCC33530). Further, the MIC against Mycoplasma genitalium (ATCC49895) and against Mycoplasma genitalium (ATCC49899) was 2 µg/mL (≈ 5.53 µM) in each case.
